Laboratory results: patent US20170071944A1, “MODULATORS OF TOLL-LIKE RECEPTORS FOR THE TREATMENT OF HIV” (Gilead Sciences, Inc., priority 2015, published 2017)

Legend:
[1] = tested on: HIV-specific polyfunctional CD8 T cells; experiment: Induced HIV-specific polyfunctional CD8+ T cells in PBMC cultures from HIV-1 infected subjects on cART; format: cell-based, human; conditions: for Median HIV-specific polyfunctional CD8 T cells (% proliferating CD8+ cells double positive for IFN-γ and TNF-α): 5 subjects, vehicle 0.73% (Example 15 group), 0.13% (Example 98 group)
HIV-infected CD4 T cells = experiment: PGT121 antibody-mediated killing of HIV-infected CD4 T cells, PBMC effector model; format: cell-based, human
Excerpt: NK cells and monocytes mediate antibody-dependent cellular cytotoxicity (ADCC) and antibody-dependent cellular phagocytosis (ADCP) respectively. To assess the ability of the compound of Example 15 to enhance ADCC and ADCP, two models were developed using monocytes or PBMCs as effector cells and HIV-infected CD4 T cells as target cells. PBMCs were isolated from 3 healthy subjects' leukaphereses (AllCells, participant IDs A4593, A4596, A4606), as described above. CD4 T cells were isolated from PBMCs using negative selection magnetic beads (EasySep, StemCell Technologies). CD4 T cells were spinfected with HIV-1 isolate 92HT593 (NIH AIDS Reagent Program) and cultured for 5 days at 37° C. For the PBMC model, autologous PBMCs were cultured for 5 days with vehicle control (DMSO) or Example 15 at 100 or 1000 nM. […] Marker staining was measured by flow cytometry using a LSR Fortessa (BD Biosciences) and analyzed with FlowJo software (TreeStar). The percent killing was determined by calculating the reduction of p24+ CD4+ T cells mediated by PGT121 antibody relative to a no antibody control.
PBMCs (FIG. 3) or monocytes (FIG. 4) were treated with DMSO or TLR8 agonist for 5 days (FIG. 3) or 1 day (FIG. 4) and then co-cultured for 1 day with autologous HIV-infected CD4 T cells−/+anti-HIV Env antibody PGT121. Reductions in % p24+ CD4+ T cells, relative to no antibody control, were measured by FACS. […]

CCCC[C@H](CO)Nc1nc(N)nc2cccnc12 [Example 15]
Patients in whom increases were seen ([1]; 100 nM): 3 of 5 | Median HIV-specific polyfunctional CD8 T cells (% proliferating CD8+ cells double positive for IFN-γ and TNF-α) ([1]; 100 nM with HIV peptide pool): 0.99% | Patients in whom increases were seen ([1]; 1000 nM): 4 of 5 | Increase of median HIV-specific polyfunctional CD8 T cells ([1]; 1000 nM combined with the HIV specific peptide pool, p<0.05): 2.7 fold | Median HIV-specific polyfunctional CD8 T cells (% proliferating CD8+ cells double positive for IFN-γ and TNF-α) ([1]; 1000 nM with HIV peptide pool): 2.01% | PGT121-mediated killing of HIV-infected CD4+ T cells, geometric mean area under the curve (AUC) (HIV-infected CD4 T cells; PBMCs from 3 subjects pre-treated 5 days at 100 nM, 108 for the DMSO control): 172 | Increase of AUC of PGT121-mediated killing compared to DMSO control (HIV-infected CD4 T cells; PBMCs from 3 subjects, 100 nM): 60%
